Assay results as given in PMC5356695, “A phase 1 study of oral ridaforolimus in pediatric patients with advanced solid tumors” (Oncotarget, 2016).
Like-named read-outs stand apart in the source and are kept apart here.

System: pediatric patients with advanced solid tumors
Details: for Leukopenia (treatment-related AE): laboratory values only
Experimental: This phase 1, multicenter, open-label study was conducted at a total of 8 study sites (3 study sites in the United States and 5 Innovative Therapies for Children with Cancer [ITCC] Consortium centers [2 in the United Kingdom and 3 in France]) between January 31, 2012, and the data cutoff, January 14, 2014 (ClinicalTrials.gov identifier NCT01431534; European Clinical Trials Database [EudraCT] number 2011-000729-55). An enteric-coated tablet formulation of ridaforolimus was orally administered for 5 consecutive days and not administered for 2 consecutive days per week in 28-day cycles until progression, unacceptable toxicity, or consent withdrawal. […] Dose escalation was conducted by using a modified toxicity probability intervals method that targeted a 30% DLT rate and started at 22 mg/m^2 (the equivalent of the adult RP2D [27], a 40-mg dose in adults with a BSA of 1.8 m^2). […] Dosing was adjusted based on BSA and rounded to the nearest 10-mg tablet. Patients were to be treated at sequentially rising dose levels until a preliminary MTD was identified.
Toxicity was graded according to the National Cancer Institute Common Terminology Criteria for Adverse Events, version 4.0 [42]. Safety data were reported for all patients who received at least 1 dose of the study drug. […] Once the RP2D of ridaforolimus was defined, an expansion cohort to be treated at the RP2D was planned to obtain additional safety, tolerability, and pharmacokinetic data.

## CO[C@H]1C[C@@H]2CC[C@@H](C)[C@@](O)(O2)C(=O)C(=O)N2CCCC[C@H]2C(=O)O[C@H]([C@H](C)C[C@@H]2CC[C@@H](OP(C)(C)=O)[C@H](OC)C2)CC(=O)[C@H](C)/C=C(\C)[C@@H](O)[C@@H](OC)C(=O)[C@H](C)C[C@H](C)/C=C/C=C/C=C/1C [ridaforolimus]
33 mg/m^2 n = 13, grades 3–4
  Increased alkaline phosphatase (treatment-related AE): 0 n (%)
  Increased bilirubin (treatment-related AE): 0 n (%)
  Increased γ-glutamyltransferase (treatment-related AE): 1 (8) n (%)
  Lymphopenia (treatment-related AE): 1 (8) n (%)
  Nausea (treatment-related AE): 0 n (%)
  Neutropenia (treatment-related AE): 1 (8) n (%)
  Oral herpes (treatment-related AE): 0 n (%)
  Patients with ≥1 treatment-related adverse event: 5 (38) n (%)
  Photophobia (treatment-related AE): 0 n (%)
  Rash (treatment-related AE): 0 n (%)
  Stomatitis (treatment-related AE): 0 n (%)
  Thrombocytopenia (treatment-related AE): 1 (8) n (%)
  Vomiting (treatment-related AE): 0 n (%)
  Leukopenia (treatment-related AE): 0 n (%)
Total N = 20, any grade
  Anemia (treatment-related AE): 8 (40) n (%)
  Decreased appetite (treatment-related AE): 2 (10) n (%)
  Decreased weight (treatment-related AE): 2 (10) n (%)
  Diarrhea (treatment-related AE): 2 (10) n (%)
  Dry mouth (treatment-related AE): 2 (10) n (%)
  Dysgeusia (treatment-related AE): 3 (15) n (%)
  Epistaxis (treatment-related AE): 2 (10) n (%)
  Fatigue (treatment-related AE): 9 (45) n (%)
  Headache (treatment-related AE): 3 (15) n (%)
  Hypercholesterolemia (treatment-related AE): 9 (45) n (%)
  Hyperglycemia (treatment-related AE): 2 (10) n (%)
  Hypertriglyceridemia (treatment-related AE): 10 (50) n (%)
  Hypocalcemia (treatment-related AE): 2 (10) n (%)
  Hypokalemia (treatment-related AE): 2 (10) n (%)
  Hypophosphatemia (treatment-related AE): 5 (25) n (%)
  Increased ALT (treatment-related AE): 10 (50) n (%)
  Increased AST (treatment-related AE): 8 (40) n (%)
  Increased alkaline phosphatase (treatment-related AE): 2 (10) n (%)
  Increased bilirubin (treatment-related AE): 2 (10) n (%)
  Increased γ-glutamyltransferase (treatment-related AE): 5 (25) n (%)
  Lymphopenia (treatment-related AE): 2 (10) n (%)
  Nausea (treatment-related AE): 6 (30) n (%)
  Neutropenia (treatment-related AE): 6 (30) n (%)
  Oral herpes (treatment-related AE): 2 (10) n (%)
  Patients with ≥1 treatment-related adverse event: 19 (95) n (%)
  Photophobia (treatment-related AE): 3 (15) n (%)
  Rash (treatment-related AE): 2 (10) n (%)
  Stomatitis (treatment-related AE): 15 (75) n (%)
  Thrombocytopenia (treatment-related AE): 13 (65) n (%)
  Vomiting (treatment-related AE): 3 (15) n (%)
  Leukopenia (treatment-related AE): 7 (35) n (%)
Total N = 20, grades 3–4
  Anemia (treatment-related AE): 0 n (%)
  Decreased appetite (treatment-related AE): 0 n (%)
  Decreased weight (treatment-related AE): 0 n (%)
  Diarrhea (treatment-related AE): 0 n (%)
  Dry mouth (treatment-related AE): 0 n (%)
  Dysgeusia (treatment-related AE): 0 n (%)
  Epistaxis (treatment-related AE): 0 n (%)
  Fatigue (treatment-related AE): 0 n (%)
  Headache (treatment-related AE): 0 n (%)
  Hypercholesterolemia (treatment-related AE): 1 (5) n (%)
  Hyperglycemia (treatment-related AE): 0 n (%)
  Hypertriglyceridemia (treatment-related AE): 1 (5) n (%)
  Hypocalcemia (treatment-related AE): 0 n (%)
  Hypokalemia (treatment-related AE): 0 n (%)
  Hypophosphatemia (treatment-related AE): 1 (5) n (%)
  Increased ALT (treatment-related AE): 5 (25) n (%)
  Increased AST (treatment-related AE): 1 (5) n (%)
  Increased alkaline phosphatase (treatment-related AE): 0 n (%)
  Increased bilirubin (treatment-related AE): 0 n (%)
  Increased γ-glutamyltransferase (treatment-related AE): 1 (5) n (%)
  Lymphopenia (treatment-related AE): 1 (5) n (%)
  Nausea (treatment-related AE): 0 n (%)
  Neutropenia (treatment-related AE): 1 (5) n (%)
  Oral herpes (treatment-related AE): 1 (5) n (%)
  Patients with ≥1 treatment-related adverse event: 9 (45) n (%)
  Photophobia (treatment-related AE): 0 n (%)
  Rash (treatment-related AE): 0 n (%)
  Stomatitis (treatment-related AE): 0 n (%)
  Thrombocytopenia (treatment-related AE): 2 (10) n (%)
  Vomiting (treatment-related AE): 0 n (%)
  Leukopenia (treatment-related AE): 0 n (%)
All patients, N = 20
  Anemia, treatment-related: 40%
  Fatigue, treatment-related: 45%
  Hypercholesterolemia, treatment-related: 45%
  Hypertriglyceridemia, treatment-related: 50%
  Increased ALT, treatment-related: 50%
  Increased aspartate aminotransferase (AST), treatment-related: 40%
  Leukopenia, treatment-related: 35%
  Nausea, treatment-related: 30%
  Neutropenia, treatment-related: 30%
  Patients with at least 1 treatment-related adverse event: 95%
  Serious adverse events related to study treatment: 15%
  Stomatitis, treatment-related: 75%
  Thrombocytopenia, treatment-related: 65%
  Treatment-related grade 3/4 increased ALT: 25%
  Treatment-related grade 3/4 thrombocytopenia: 10%
All patients, N = 20 (9 patients)
  Treatment-related grade 3/4 adverse events: 45%
All patients, N = 20 (12 patients), most disease related
  Serious adverse events: 60%
Dose level 3, 33 mg/m^2, cycle 1
  Time to DLT onset, days: 22 (cycle 1) days
Once daily 5 days/week
  Recommended phase 2 dose (RP2D) for oral ridaforolimus in children: 33 mg/m^2
Three deaths during the study
  Deaths / grade 5 adverse events related to ridaforolimus: No deaths were considered related to ridaforolimus
